Data published in patent publication US10961222B2, “Chemical compound of isocitrate dehydrogenase inhibitor, and application thereof” (NANJING SANHOME PHARMACEUTICAL CO., LTD., priority 2016, dated 2021).
pIC50: −log10 of the molar value.

Legend:
IDH2-R140Q mutant enzyme = target: T1, IDH2-R140Q mutant enzyme (Homo sapiens, UniProt P48735, R140Q); assay: Inhibitory activity of compounds on IDH2-R140Q enzyme in vitro (diaphorase/resazurin fluorescence); assay type: biochemical; settings: R140Q IC50, IDH2-R140Q, pre-incubated 16 h with enzyme and NADPH, reaction 1 h with α-ketoglutarate
T1 construct: purchased BPS 71100-1
T1 sequence (P48735 40-452 R140Q): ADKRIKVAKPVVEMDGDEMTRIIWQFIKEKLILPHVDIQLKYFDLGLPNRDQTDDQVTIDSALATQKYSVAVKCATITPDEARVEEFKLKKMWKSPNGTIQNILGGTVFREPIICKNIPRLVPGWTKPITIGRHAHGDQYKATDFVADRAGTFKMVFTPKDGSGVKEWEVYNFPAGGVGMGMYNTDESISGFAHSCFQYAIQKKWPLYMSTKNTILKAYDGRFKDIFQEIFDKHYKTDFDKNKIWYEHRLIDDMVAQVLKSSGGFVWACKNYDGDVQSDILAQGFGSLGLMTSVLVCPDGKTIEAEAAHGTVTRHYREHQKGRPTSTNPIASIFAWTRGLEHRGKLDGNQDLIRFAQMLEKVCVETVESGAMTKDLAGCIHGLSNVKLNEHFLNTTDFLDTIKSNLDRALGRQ

[1] = test system: human acute myeloid leukemia AM7577 cells; assay: Human acute myeloid leukemia NOD/SCID animal model: survival; assay type: in vivo, NOD/SCID mice; settings: gavage once a day for 14 days, 14 days after administration
Excerpt: 1.1 Compounds to be tested: the compounds of the present disclosure prepared in the above examples, each of which was formulated into a solution in corresponding concentrations by using a vehicle (2% absolute ethanol:10% Solutol™: 88% physiological saline (v/v/v)).
1.2 Cells: human acute myeloid leukemia AM7577 cells, provided by Sino-American Crown Biotechnology (Beijing) Co., Ltd
1.4 Animals: NOD/SCID mice, 3-4 weeks old, female, purchased from Beijing Huakangkang Biotechnology Co., Ltd
Each mouse was inoculated through the tail vein at an amount of 2×10^6 cells resuspended in 100 uL of PBS.
Orbital blood samples of animals were collected weekly, labeled with human CD45, and the percentage of positive cells was detected. The animals were grouped when the percentage of peripheral blood CD45+ cells reached 5%. The proportion of peripheral blood CD45+ cells reached 5% on the 40th day after inoculation. After grouping, drugs were administered by gastric gavageonce once a day for 14 days.
The mortality rate of the animals after administration and the survival period of the surviving animals were observed.

[2] = test system: U87-MG (IDH2-R140Q) subcutaneous xenograft tumor; assay: Subcutaneous xenograft tumor caused by U87-MG (IDH2-R140Q) mutant cells in vivo: intratumor 2-HG; design: species or system BALB/c nude mice; settings: intragastric, 10 days, mean, relative to U87-MG (IDH2-R140Q) control group

CC(C)(O)CNc1nc(Nc2ccnc(C(F)(F)F)c2)nc(-c2cccc(C(F)(F)F)n2)n1 [AG-221, 2-methyl-1-(4-(6-(trifluoromethyl)pyridin-2-yl)-6-(2-(trifluoromethyl)pyridin-4-ylamino)-1,3,5-triazin-2ylamino)propan-2-ol, reference compound]
pIC50 (IDH2-R140Q mutant enzyme): 7.68
Numbers of surviving animals ([1]; 15 mg/kg, 8 animals per group): 6
Numbers of surviving animals ([1]; 45 mg/kg, AG-221 group 4 animals, Example 22B group 8): 3
Intratumor 2-HG(%) after 10 days of administration ([2]; 6.25 mg/kg): 58%
Intratumor 2-HG(%) after 10 days of administration ([2]; 12.5 mg/kg): 9%
Intratumor 2-HG(%) after 10 days of administration ([2]; 25 mg/kg): −4%
